Source: PMC4122355, “Inhibitor of the Tyrosine Phosphatase STEP Reverses Cognitive Deficits in a Mouse Model of Alzheimer's Disease” (PLoS Biology, 2014)

Columns and labels:
3xTg-AD and WT mice [1] = assay: Novel object recognition (NOR) task; assay type: in vivo, mouse; settings: 10 mg/kg i.p.
Protocol: Mice were first habituated to the task by allowing them to explore an empty white open field box (60 cm×60 cm) for 5 min. […] After the elapsed time, the mice completed the sample phase in which they were placed into the open field box with two identical objects located in the right and left corners. Mice were allowed to freely explore until they had accumulated a total of 30 s of object exploration (i.e., contact with the object with the nose and/or front paws), at which point the trial ended. The time spent with each object was recorded. Mice that were unable to complete the 30 s exploration within 20 min during the sample phase were excluded from the study (WT = 1 and AD = 3). Twenty-four hours later, mice completed the choice phase that was conducted in an identical manner to the sample phase except that one of the objects was substituted by a novel object and trial duration was set at 5 min. No drug treatments were given during the choice phase. Fifteen WT mice from the initial cohort were used to optimize the novel object conditions (to identify object pairings of inherent equal interest). Location of the novel object (left or right side) was counterbalanced to minimize possible bias. […] The DI was calculated for each subject by using the following formula: DI = (time spent exploring novel object – time spent exploring familiar object)/(total time spent exploring both objects). […]

Aβ and phospho-tau = Aβ and phospho-tau levels in 12-mo-old 3xTg-AD mice; assay type: in vivo, mouse; settings: 10 mg/kg i.p.
Protocol: Time spent with either a novel or familiar object was recorded using ANY-maze software. Square-root transformation was used to meet the assumptions of normality and equal variance of the raw data. All histograms are presented as means ± s.e.m. Student's t test was applied to determine significance differences (*p<0.05; WT-Veh, n = 10; WT TC, n = 11; AD-Veh, n = 22; AD-TC, n = 19). […] CTFs and Aβ are indicated by arrowheads. Representative 7PA2-CM (Aβ-enriched conditioned medium) immunoprecipitation is shown on right panel. Data are presented as means ± s.e.m. […] Data are presented as means ± s.e.m. […] (TIF) Click here for additional data file.

SHP-2 = biological target: T1, SHP-2 (Homo sapiens, UniProt Q06124); assay: Selectivity pNPP assay, full-length PTPs: SHP-2; assay type: biochemical; settings: full-length PTP, 10 nM, 500 µM pNPP
T1 construct: GST (N); made in house; host or cells: E. coli BL21 (DE3)
T1 sequence (Q06124 1-593): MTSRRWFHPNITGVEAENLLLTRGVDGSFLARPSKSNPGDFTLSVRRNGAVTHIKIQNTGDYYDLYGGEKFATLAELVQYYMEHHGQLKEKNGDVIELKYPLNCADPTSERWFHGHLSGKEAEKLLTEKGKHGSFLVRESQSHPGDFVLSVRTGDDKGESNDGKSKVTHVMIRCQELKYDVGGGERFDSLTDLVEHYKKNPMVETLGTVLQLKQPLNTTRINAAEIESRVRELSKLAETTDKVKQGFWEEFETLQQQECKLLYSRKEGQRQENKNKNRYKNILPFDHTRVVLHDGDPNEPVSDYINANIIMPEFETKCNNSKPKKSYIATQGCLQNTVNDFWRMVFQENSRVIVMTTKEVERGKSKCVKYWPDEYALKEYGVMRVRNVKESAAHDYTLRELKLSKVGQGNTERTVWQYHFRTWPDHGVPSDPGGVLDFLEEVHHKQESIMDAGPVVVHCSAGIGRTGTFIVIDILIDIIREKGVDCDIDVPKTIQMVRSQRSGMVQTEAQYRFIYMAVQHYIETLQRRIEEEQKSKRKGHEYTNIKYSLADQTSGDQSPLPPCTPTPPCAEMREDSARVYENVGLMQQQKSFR
Source text: Constructs were transformed into BL21 (DE3) E. coli cells. Fusion proteins were purified on a glutathione sepharose column.

3xTg-AD and WT mice [2] = assay: Morris water maze (MWM), reference memory version; assay type: in vivo, mouse
Protocol: The reference memory version of the MWM task was performed as described previously. A crossover design was not used in the MWM task, as the mice were randomly assigned to each treatment condition and can be exposed to the task only once. Briefly, animals were trained to swim in a 1.4 m diameter pool to find a submerged platform (14 cm in diameter) located 1 cm below the surface of water (24°C), rendered opaque by the addition of nontoxic white paint. Animals were pseudo-randomly started from a different position at each trial and used distal visual-spatial cues to find the hidden escape platform that remained in the center of the same quadrant throughout all training days. Training measures included escape latency to reach the platform, swim speed, and thigmotaxis. […] At 24 h after the acquisition phase, the platform was removed and a probe trial of 90 s was given to evaluate the number of entries in a circular zone (three times the platform diameter) positioned around the previous platform location (target zone) and in the opposite quadrants. To assess visual deficits and motivation to escape from water, the probe test was followed by a cued task (60 s; three trials per animal) during which the platform was visible. The visible platform was moved to different locations between each trial. After each trial, animals were immediately placed under a warming lamp to dry to prevent hypothermia. […] Behavioral data from training, probe, and cued trials were acquired and analyzed using the ANY-maze automated tracking system (Stoelting, IL, USA).

Cl.Nc1cc(C(F)(F)F)cc2c1SSSSS2 [TC-2153, 8-(trifluoromethyl)-1,2,3,4,5-benzopentathiepin-6-amine hydrochloride]
NOR memory in 12-mo-old AD mice (3xTg-AD and WT mice [1]; 12-mo-old 3xTg-AD mice, familiar versus novel p<0.05): significant improvement of memory
NOR cognitive function in 12-mo-old WT mice (3xTg-AD and WT mice [1]; WT mice, 12 mo cohort): did not affect cognitive function
Aβ or phospho-tau levels (Aβ and phospho-tau): no significant changes in Aβ or phospho-tau levels
Aβ or phospho-tau levels (Aβ and phospho-tau; row): did not affect the Aβ and tau brain pathology
IC50 (SHP-2): 6.9 µM
MWM probe trial, target zone (3xTg-AD and WT mice [2]; 3xTg-AD mice, 24 h after last acquisition day): spent as much time as WT mice in the target zone
MWM acquisition phase escape latency (3xTg-AD and WT mice [2]; 3xTg-AD mice, daily injection 3 h prior to training, days 5 and 6): reversed memory deficits
MWM cued trial escape latency, AD mice (3xTg-AD and WT mice [2]; AD-TC, visible platform, AD-Veh 15.3±3.0): 16.0 ± 2.3 s
MWM cued trial escape latency, WT mice (3xTg-AD and WT mice [2]; WT-TC, visible platform, WT-Veh 15.1±1.7): 15.6 ± 1.7 s
